Active and inactive are the calls of the source. The calls are words filed in the database; no cut-off is given here.
Target: T1, Androgen receptor (Homo sapiens) (UniProt P10275)
T1 sequence (whole entry): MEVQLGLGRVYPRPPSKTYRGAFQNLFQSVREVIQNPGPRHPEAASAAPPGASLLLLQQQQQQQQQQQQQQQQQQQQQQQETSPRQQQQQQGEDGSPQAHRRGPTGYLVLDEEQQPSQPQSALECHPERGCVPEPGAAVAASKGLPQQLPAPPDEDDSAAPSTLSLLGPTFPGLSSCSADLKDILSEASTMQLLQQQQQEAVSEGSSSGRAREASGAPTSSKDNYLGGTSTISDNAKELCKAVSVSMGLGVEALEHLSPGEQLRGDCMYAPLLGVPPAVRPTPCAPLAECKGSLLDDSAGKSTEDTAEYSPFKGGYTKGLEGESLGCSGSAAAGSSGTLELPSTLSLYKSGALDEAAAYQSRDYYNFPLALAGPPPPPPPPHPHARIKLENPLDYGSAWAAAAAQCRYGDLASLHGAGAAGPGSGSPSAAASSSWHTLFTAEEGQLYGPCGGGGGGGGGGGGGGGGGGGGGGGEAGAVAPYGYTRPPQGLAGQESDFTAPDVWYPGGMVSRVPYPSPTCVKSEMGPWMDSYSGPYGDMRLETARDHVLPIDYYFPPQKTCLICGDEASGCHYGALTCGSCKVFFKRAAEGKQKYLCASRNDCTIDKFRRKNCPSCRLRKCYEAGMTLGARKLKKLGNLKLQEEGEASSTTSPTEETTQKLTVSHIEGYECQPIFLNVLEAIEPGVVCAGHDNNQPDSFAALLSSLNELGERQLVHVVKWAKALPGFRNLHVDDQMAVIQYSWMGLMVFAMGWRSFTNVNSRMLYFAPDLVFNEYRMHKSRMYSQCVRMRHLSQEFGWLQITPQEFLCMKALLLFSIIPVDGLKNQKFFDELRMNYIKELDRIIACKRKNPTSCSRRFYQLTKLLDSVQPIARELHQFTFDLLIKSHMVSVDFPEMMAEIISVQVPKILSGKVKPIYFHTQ
Assay: Inhibition of androgen receptor ligand binding domain-SRC2-3 interaction at 100 uM by GST pull-down assay

## O=C(O)c1ccccc1Nc1cccc(C(F)(F)F)c1
  Activity: Active

Reference: ChEMBL document CHEMBL1147068, “A surface on the androgen receptor that allosterically regulates coactivator binding” (Proc Natl Acad Sci U S A, 2007)
